Calls of active or inactive are those of the source. The rule behind the calls is not given here.

A short description of series [1]: Drug localization in nucleus of mouse MigA9 cells at 20 uM incubated for 2 hrs by TO-PRO-3/propidium iodide staining based by fluorescence microscopy. It counts as ADME, subcellular. To be noted: miga9, 2 h.
Series [2] is described as follows: Induction of cell death in mouse MigA9 cells harboring mouse Hoxa9 gene assessed as propidium iodide-positive cells at 5 uM incubated for 24 hrs by propidium iodide staining based flow cytometry (reference value: 9.06 +/- 0.53%). It counts as functional.
A short description of series [3]: Induction of cell death in mouse MigA9 cells harboring mouse Hoxa9 gene assessed as propidium iodide-positive cells at 5 uM incubated for 48 hrs by propidium iodide staining based flow cytometry (reference value: 8.75 +/- 0.2%). The format is functional.
Series [4] in a line: Induction of cell cycle arrest in mouse MigA9 cells harboring mouse Hoxa9 gene assessed as accumulation at sub-G1 phase at 5 uM incubated for 48 hrs by propidium iodide staining based flow cytometry (reference value: 0.76 +/- 0.1%). It counts as functional.
The nature of series [5]: Induction of cell cycle arrest in mouse MigA9 cells expressing mouse Hoxa9 assessed as accumulation at G0/G1 phase at 5 uM incubated for 48 hrs by EdU/propidium iodide staining based flow cytometry (reference value: 48.77 +/- 0.19%). It counts as functional.
A short description of series [6]: Induction of cell cycle arrest in mouse MigA9 cells expressing mouse Hoxa9 assessed as accumulation at S phase at 5 uM incubated for 48 hrs by EdU/propidium iodide staining based flow cytometry (reference value: 46.68 +/- 0.21%). The format is functional.
A short description of series [7]: Induction of cell cycle arrest in mouse MigA9 cells expressing mouse Hoxa9 assessed as accumulation at G2/M phase at 5 uM incubated for 48 hrs by EdU/propidium iodide staining based flow cytometry (reference value: 4.55 +/- 0.16%). It counts as functional.
Series [8] deals with HOXA9 DNA binding site. To be noted: dose 0.5 µM.
For series [9], the system named is HOXA9 DNA binding site. The note with it: dose 1.0 µM.
Series [10] can be described thus: Drug localization in nucleus of human HT-29 cells at 5 uM incubated for 16 hrs by DiOC6/propidium iodide staining based by fluorescence microscopy. It counts as ADME, subcellular. To be noted: ht-29, 16 h.
For series [11], the system named is HOXA9 DNA binding site. Put plainly: Inhibition of HOXA9 (unknown origin) expressed in reticulocyte lysate system binding to 32P-radiolabeled DNA Hoxa9-binding site (strand a-CTGCGATGATTTACGACCGC /strand b-GCGGTCGTAAATCATCGCAG) (unknown origin) assessed as HOXA9/DNA inhibition at 2.5 to 20 uM incubated for 20 mins by electrophoretic mobility shift assay relative to control. The format is subcellular. The note with it: dose 2.5-20 µM.

Series [12] concerns HOXA9 DNA binding site. To be noted: dose 0.5-1 µM.
A short description of series [13]: Induction of cell death in mouse MigA9 cells harboring mouse Hoxa9 gene assessed as propidium iodide-positive cells at 0.5 uM incubated for 24 hrs by propidium iodide staining based flow cytometry (reference value: 9.06 +/- 0.53%). It counts as functional.
Series [14] in a line: Induction of cell death in mouse MigA9 cells harboring mouse Hoxa9 gene assessed as propidium iodide-positive cells at 1 uM incubated for 24 hrs by propidium iodide staining based flow cytometry relative to control. The format is functional.
Series [15] is described as follows: Induction of cell death in mouse MigA9 cells harboring mouse Hoxa9 gene assessed as propidium iodide-positive cells at 0.5 uM incubated for 48 hrs by propidium iodide staining based flow cytometry (reference value: 8.75 +/- 0.2%). It counts as functional.
The nature of series [16]: Induction of cell death in mouse MigA9 cells harboring mouse Hoxa9 gene assessed as propidium iodide-positive cells at 1 uM incubated for 48 hrs by propidium iodide staining based flow cytometry (reference value: 8.75 +/- 0.2%). It counts as functional.
Series [17] in a line: Induction of cell cycle arrest in mouse MigA9 cells harboring mouse Hoxa9 gene assessed as accumulation at sub-G1 phase at 0.5 uM incubated for 48 hrs by propidium iodide staining based flow cytometry (reference value: 0.76 +/- 0.1%). It counts as functional.
Series [18] is described as follows: Induction of cell cycle arrest in mouse MigA9 cells expressing mouse Hoxa9 assessed as accumulation at G0/G1 phase at 0.5 uM incubated for 48 hrs by EdU/propidium iodide staining based flow cytometry (reference value: 48.77 +/- 0.19%). The format is functional.
Series [19] is described as follows: Induction of cell cycle arrest in mouse MigA9 cells expressing mouse Hoxa9 assessed as accumulation at S phase at 0.5 uM incubated for 48 hrs by EdU/propidium iodide staining based flow cytometry (reference value: 46.68 +/- 0.21%). The format is functional.
Series [20] can be described thus: Induction of cell cycle arrest in mouse MigA9 cells expressing mouse Hoxa9 assessed as accumulation at G2/M phase at 0.5 uM incubated for 48 hrs by EdU/propidium iodide staining based flow cytometry (reference value: 4.55 +/- 0.16%). It counts as functional.
A short description of series [21]: Cytotoxicity against mouse MigA9 cells harboring mouse Hoxa9 gene incubated for 72 hrs by MTS assay. The format is functional, cell-based. The note with it: MigA9, 72 h.
Series [22] can be described thus: Induction of cell death in mouse MigA9 cells harboring mouse Hoxa9 gene assessed as propidium iodide-positive cells at 15 uM incubated for 24 hrs by propidium iodide staining based flow cytometry (reference value: 9.06 +/- 0.53%). The format is functional.
Series [23] in a line: Induction of cell death in mouse MigA9 cells harboring mouse Hoxa9 gene assessed as propidium iodide-positive cells at 20 uM incubated for 24 hrs by propidium iodide staining based flow cytometry (reference value: 9.06 +/- 0.53%). The format is functional.
Series [24] can be described thus: Induction of cell cycle arrest in mouse MigA9 cells harboring mouse Hoxa9 gene assessed as accumulation at sub-G1 phase at 20 uM incubated for 48 hrs by propidium iodide staining based flow cytometry (reference value: 0.76 +/- 0.1%). It counts as functional.

In the case of `CC(C)n1c(-c2ccc(-c3ccc(C(=N)N)cc3)s2)nc2cc(-c3ccc(C(=N)N)cc3)ccc21`, the Drug transport result in series [1] was “Active”.
On the same count and under the same terms, the entry for `N=C(N)c1ccc(-c2ccc(-c3cc4cc(C(=N)N)ccc4[nH]3)o2)nc1` is “Active”.
For `N=C(N)c1ccc(-c2ccc(-c3cc4ccc(C(=N)N)cc4[nH]3)s2)nc1`, the Activity in [2] is on record as 6.21%; in series [3] it was 39.4%; in [4], 4.48%; in [5], 67.95%; in [6], 22.55%; in series [7], 9.5%. The ΔTm in [8] was 7 °C; in series [9], more than 10 °C.
Turning to `N=C(N)c1ccc(-c2ccc(-c3nc4ccc(C(=N)N)cc4[nH]3)o2)c(O)c1`, the Drug transport entry in series [10] is “Active”.
Regarding `Cn1c(-c2ccc(-c3ccc(C(=N)N)cc3)s2)nc2cc(C(=N)N)ccc21`, in series [11], the inhibition entry is “inactive”. The Drug transport entry in series [1] is on record as “Active”.
For `N=C(N)c1ccc(-c2ccc(-c3ccc(C(=N)N)cc3)o2)cc1` [FURAMIDINE], in series [1], the Drug transport result is reported as “Active”.
For `N=C(N)c1ccc(-c2cccc(-c3nc4cc(C(=N)N)ccc4[nH]3)c2)cc1`, the Drug transport result in [1] was “Not Active”.
With `N=C(N)c1ccc(-c2ccc(-c3nc4cc(C(=N)N)ccc4[nH]3)o2)cc1`, the Drug transport entry in series [10] is given as “Active”. Also, the inhibition result in [11] is “inactive”.
Turning to `N=C(N)c1ccc(-c2ccc(-c3nc4ccc(C(=N)N)cc4[nH]3)o2)nc1`, the Drug transport entry in [10] and in series [1] was “Active” in each case.
As for `N=C(N)c1ccc(-c2ccc(-c3ccc4ccc(C(=N)N)cc4c3)cc2)cc1`, the ΔTm in [12] was 8 °C.
Take `N=C(N)c1ccc(-c2ccc(-c3cc4ccc(C(=N)N)cc4[nH]3)s2)cc1`: the Activity is given as 7.42% in [2]; 77.87% in [3]; 33.64% in series [4]; 77.92% in series [5]; 9.15% in series [6]; 12.93% in series [7]. Further, in series [1], the Drug transport entry was “Active”. Besides, the ΔTm in series [9] was more than 10 °C.
In the case of `N=C(Nc1ccc(-c2ccc(-c3ccc(NC(=N)c4ccccc4)cc3)[nH]2)cc1)c1ccccc1`, the Activity in [13] came to 12.9%; in series [14], 68.8%; in [15] it was 18.33%; in series [16] it was 99.33%; in series [17], 2.47%; in series [18] it was 53.83%. Further, the results for the Activity in [19] and in series [20] were 38.84% and 7.32%, respectively. Also, the Drug transport entry in [1] is given as “Active”. Also, the ΔTm in [12] is 8 °C.
In the case of `Cc1cc(C(=N)N)ccc1-c1ccc(-c2nc3ccc(C(=N)N)cc3[nH]2)o1`, the Drug transport result in [10] is given as “Active”.
For `COc1cc(C(=N)N)ccc1-c1ccc(-c2cc3ccc(C(=N)N)cc3[nH]2)o1`, the Drug transport result in [1] is listed as “Active”.
Consider `Cn1c(-c2ccc(-c3ccc(-c4nc5cc(C(=N)N)ccc5n4C)s3)cc2)nc2cc(C(=N)N)ccc21`, for which the inhibition result in [11] is “inactive”. The Drug transport result in series [1] is on record as “Active”.
For `N=C(N)c1ccc(-n2ccc(-c3nc4ccc(C(=N)N)cc4[nH]3)n2)cc1`, the IC50 in [21] is more than 50 µM. Besides, the Activity amounted to 8.64% in series [22] (miga9, at 15 µM); 10.43% in series [23] (miga9, at 20 µM); 0.67% in series [24].
Take `N=C(N)c1ccc(-c2cnc(-c3ccc(C(=N)N)cc3)o2)cc1`: the inhibition entry in [11] is “inactive”.
Consider `N=C(N)c1ccc2nc(-c3ccc(-c4ccc(C(=N)N)nc4)o3)[nH]c2c1`, for which the Drug transport entry in series [10] is “Active”. For the same molecule, in series [11], the inhibition result was “inactive”.
On to `N=C(N)c1ccc(-c2cnc(-c3ccc(C(=N)N)cc3)s2)cc1`, for which the inhibition result in series [11] is “Active”. Further, the Activity came out at 5.69% in series [22] (dose 15 µM, time 24 hrs); 5.91% in series [23] (dose 20 µM, time 24 hrs); 1.71% in series [24]. In addition, the Drug transport result in [1] is given as “Active”.
For `Cn1c(-c2ccc(-c3ccc(C(=N)N)cc3)o2)nc2cc(C(=N)N)ccc21`, in [11], the inhibition result is “inactive”. The Drug transport entry in [1] is recorded as “Active”.
Take `N=C(N)c1ccc(-c2ccc(-c3cc4ccc(C(=N)N)cc4[nH]3)o2)cc1`: the inhibition entry in series [11] was “Active”. For the same molecule, the Activity in series [22] (dose 15 µM, time 24 hrs) is 11.76%. In addition, in [1], the Drug transport result is “Active”. Also, the ΔTm in [8] is 7 °C; in [9], more than 10 °C.

These data come from ChEMBL document CHEMBL4813909, “Heterocyclic Diamidine DNA Ligands as HOXA9 Transcription Factor Inhibitors: Design, Molecular Evaluation, and Cellular Consequences in a HOXA9-Dependant Leukemia Cell Model” (J Med Chem, 2019).
